Converted amounts (≈) assume the structure as drawn. Where a SMILES comes first, the peptide text is derived from it. [ ]: non-standard residue; d: D form.
How the values were obtained:
[1] = system: P. aeruginosa PAO1 biofilms; test: Biofilm inhibition by SPOT-synthesized AB103-D variants (crystal violet), P. aeruginosa; type: cell-based, Pseudomonas aeruginosa; conditions: P. aeruginosa PAO1, SPOT peptides
MRSA USA300 biofilms = test: Biofilm inhibition by >95% pure peptides (crystal violet), MRSA; type: cell-based, methicillin resistant Staphylococcus aureus; conditions: MRSA USA300 biofilms, >95% pure peptides, 10% TSB + 0.1% glucose
[2] = Subdermal murine toxicity model; conditions: for Average cyst size compared to DJK-5: 16 hours after administration, 4 mg/kg
Procedure: FIGS. 14A-14B show murine subdermal toxicity assessment of AB103-D derived peptides. Clinical scores were recorded for each peptide treated mouse one hour after peptide administration (FIG. 14A). […] The presence of a cyst or lesion was recorded 16 hours after peptide administration and the size of the cyst was measured using calipers (FIG. 14B). Data shown are the mean of two independent replicates at a peptide dose of 4 mg/kg.
Subdermal murine toxicity model: A subdermal toxicity mouse model was used to evaluate whether peptides induced localized toxicity of treated cutaneous tissue. Mice were anesthetized with 2.5-3% isoflurane and their fur was removed by shaving followed by application of a chemical depilatory. […] Mice were visually assessed and received clinical scores for a battery of signs or symptoms (activity/behaviour change, appearance/grooming, hydration, pain, cyst formation), for which a score of zero was given to animals that appeared normal. Animals were weighed and clinical scores were totalled. Following an overnight (16 h) incubation, mice were scored and weighed then euthanized with CO2 followed by cervical dislocation. Mice were imaged and cysts (swollen, inflamed tissue) were measured using a caliper. Animal experiments were performed in accordance with the Canadian Council on Animal Care (CCAC) guidelines and were approved by the University of British Columbia Animal Care Committee. Female CD-1 mice were purchased from Charles River Laboratories, Inc. (Wilmington, MA). All mice were 8 weeks of age and weighed 25±5 g at the time of the experiment. Animals were group housed in cohorts of three to four littermates. Standard animal husbandry practices were employed.

[3] = system: P. aeruginosa PAO1 biofilms; conditions: P. aeruginosa PAO1 biofilms; >95% pure peptides; crystal violet; BM2 minimal media
[4] = system: MRSA biofilms (USA300 LAC); conditions: MRSA, SPOT peptides, three concentrations (FIG. 1)
P. aeruginosa PAO1 [5] = test: MIC (broth microdilution) of peptides, P. aeruginosa; type: cell-based, Pseudomonas aeruginosa; conditions: mode of three biological replicates
Procedure: (§1) Minimal inhibitory concentration (MIC) against planktonic bacteria: The MIC of the synthetic peptides was determined in Mueller-Hinton broth (MHB) using the broth microdilution method described previously [Wiegand, I., Hilpert, K., & Hancock, R. E. (2008). Agar and broth dilution methods to determine the minimal inhibitory concentration (MIC) of antimicrobial substances. Nature Protocols, 3(2), 163-175]. Briefly, 10 μl of a 10× concentrated peptide solution was placed in the bottom of a well in a 96-well polypropylene round bottom plate (Corning Inc.). A bacterial suspension of ~5×10^5 CFU/ml was prepared from an overnight culture and 90 μl of this was added to each well. […] Bacteria tested included P. aeruginosa PAO1, MRSA USA300 LAC, Staphylococcus haemolyticus, Staphylococcus epidermidis, Klebsiella pneumoniae and Streptococcus salivarius.
(§2) Finally, the AB103-D derivatives that were the least aggregation prone and which produced the lowest toxic effects in vivo were evaluated for their direct antibacterial activity towards several pathogens of clinical relevance using a standard minimum inhibitory concentration (MIC) assay [Wiegand, I., Hilpert, K., & Hancock, R. E. (2008). Agar and broth dilution methods to determine the minimal inhibitory concentration (MIC) of antimicrobial substances. Nature Protocols, 3(2), 163-175]. Specifically, peptides AB110-D, AB111-D, AB114-D and AB115-D were tested against P. aeruginosa PAO1, MRSA USA 300, Staphylococcus haemolyticus, Staphylococcus epidermidis, Klebsiella pneumoniae and Streptococcus salivarius and compared against the antibacterial activity of DJK-5 and AB103-D (Table 7). Overall, the antibacterial potency of all of the AB103-D derivatives was stronger than that seen for DJK-5, particularly in the case of the Gram-negative pathogens P. aeruginosa and K. pneumoniae. […]

MRSA USA 300 = test: MIC (broth microdilution) of peptides, MRSA; type: cell-based, methicillin resistant Staphylococcus aureus; conditions: MRSA USA300; mode of three biological replicates
Procedure: as §1, §2

[6] = system: Staphylococcus haemolyticus; test: MIC (broth microdilution) of peptides, S. haemolyticus; type: cell-based; conditions: mode of three biological replicates
Procedure: as §1, §2

[7] = system: Staphylococcus epidermidis; test: MIC (broth microdilution) of peptides, S. epidermidis; type: cell-based; conditions: mode of three biological replicates
Procedure: as §1, §2

Klebsiella pneumoniae = test: MIC (broth microdilution) of peptides, K. pneumoniae; type: cell-based; conditions: mode of three biological replicates
Procedure: as §1, §2

Streptococcus salivarius = test: MIC (broth microdilution) of peptides, S. salivarius; type: cell-based; conditions: mode of three biological replicates
Procedure: as §1, §2

MRSA USA300 = test: Biofilm inhibition (at least 80%), MRSA; type: cell-based, methicillin resistant Staphylococcus aureus; conditions: n = 4, 10% TSB + 0.1% glucose, 18-24 hours, crystal violet
[8] = system: Acinetobacter baumannii Ab5075; test: Biofilm inhibition (at least 80%), A. baumannii; type: cell-based; conditions: n = 4, BM2 minimal media, 18-24 hours, crystal violet
P. aeruginosa PAO1 [9] = test: Biofilm inhibition (at least 80%), P. aeruginosa; type: cell-based, Pseudomonas aeruginosa; conditions: n = 4, BM2 minimal media, 18-24 hours, crystal violet
E. coli O157:H7 = test: Biofilm inhibition (at least 80%), E. coli; type: cell-based, Escherichia coli; conditions: n = 3, BM2 minimal media, 18-24 hours, crystal violet
[10] = system: Enterococcus faecium #2-1; test: Biofilm inhibition (at least 80%), E. faecium; type: cell-based; conditions: E. faecium #2-1; n = 3; TSB + 1% glucose; 48 hours; crystal violet
[11] = system: Klebsiella pneumonia KPLN649; test: Biofilm inhibition (at least 80%), K. pneumonia; type: cell-based; conditions: K. pneumoniae KPLN649; n = 3; BM2 minimal media; 48 hours; crystal violet
[12] = system: Enterobacter cloacae 218R1; test: Biofilm inhibition (at least 80%), E. cloacae; type: cell-based; conditions: E. cloacae 218R1; n = 3; BM2 minimal media; 18-24 hours; crystal violet

Row | Structure (SMILES) | Activity against PAO1 biofilms compared to AB103-D [1] | minimum inhibitory concentration of peptide that inhibited at least 90% of biofilm growth (MBIC90) (MRSA USA300 biofilms) | Average cyst size compared to DJK-5 [2] | minimum inhibitory concentration of peptide that inhibited at least 90% of biofilm growth (MBIC90) [3] | MIC (P. aeruginosa PAO1 [5]) | MIC (MRSA USA 300) | MIC [6] | Peptide/Antibiotic Concentration where at least 80% of biofilm growth was inhibited (MRSA USA300) | Peptide/Antibiotic Concentration where at least 80% of biofilm growth was inhibited [8] | Peptide/Antibiotic Concentration where at least 80% of biofilm growth was inhibited (P. aeruginosa PAO1 [9]) | Peptide/Antibiotic Concentration where at least 80% of biofilm growth was inhibited (E. coli O157:H7) | further results
1 | CC[C@@H](C)[C@@H](NC(=O)[C@@H](C)NC(=O)[C@@H](CCCNC(=N)N)NC(=O)[C@@H](Cc1c[nH]c2ccccc12)NC(=O)[C@@H](CCC(N)=O)NC(=O)[C@H](NC(=O)[C@@H](CCCNC(=N)N)NC(=O)[C@H](NC(=O)[C@H](NC(=O)[C@H](NC(=O)[C@H](NC(=O)[C@H](N)CCCNC(=N)N)C(C)C)[C@H](C)CC)C(C)C)[C@H](C)CC)C(C)C)C(N)=O [AB116-D, rvivirvqwrai] (H-[dR][dV][dI][dV][dI][dR][dV][dQ][dW][dR][dA][dI]-NH2) | activity superior to that of AB103-D | 1 µM | smaller than those induced by DJK-5 | >16 µM | – | – | – | – | – | – | – | –
2 | CC[C@@H](C)[C@@H](NC(=O)[C@H](NC(=O)[C@@H](CCCNC(=N)N)NC(=O)[C@H](NC(=O)[C@@H](CCCNC(=N)N)NC(=O)[C@H](NC(=O)[C@H](NC(=O)[C@@H](CCCNC(=N)N)NC(=O)[C@@H](Cc1c[nH]c2ccccc12)NC(=O)[C@@H](CCC(N)=O)NC(=O)[C@H](N)C(C)C)C(C)C)[C@H](C)CC)C(C)C)C(C)C)C(=O)N[C@H](CCCNC(=N)N)C(N)=O [AB108-D, vqwrvirvrvir-NH2] (H-[dV][dQ][dW][dR][dV][dI][dR][dV][dR][dV][dI][dR]-NH2) | – | – | – | – | – | – | – | – | – | – | – | Biofilm inhibitory activity compared to DJK5 [4]: only slightly lower than the DJK5 sample
3 | CC[C@@H](C)[C@@H](NC(=O)[C@@H](C)NC(=O)[C@@H](CCCNC(=N)N)NC(=O)[C@@H](CC(C)C)NC(=O)[C@@H](CCC(N)=O)NC(=O)[C@H](NC(=O)[C@@H](CCCNC(=N)N)NC(=O)[C@H](NC(=O)[C@H](NC(=O)[C@@H](CCCNC(=N)N)NC(=O)[C@H](NC(=O)[C@H](N)CCCNC(=N)N)C(C)C)C(C)C)[C@H](C)CC)C(C)C)C(N)=O [AB115-D, rvrvirvqlrai] (H-[dR][dV][dR][dV][dI][dR][dV][dQ][dL][dR][dA][dI]-NH2) | – | 1 µM | smaller than those induced by DJK-5 | 8 µM | 2 µg/mL (≈ 1.35 µM) | 0.8 µg/mL (≈ 0.541 µM) | 0.8 µg/mL (≈ 0.541 µM) | – | – | – | – | MIC [7]: 0.8 µg/mL (≈ 0.541 µM); MIC (Klebsiella pneumoniae): 0.8 µg/mL (≈ 0.541 µM); MIC (Streptococcus salivarius): 0.8 µg/mL (≈ 0.541 µM); Clinical score ([2]; 1 hour after subcutaneous administration, comparator DJK-5): < 2
4 | CC[C@@H](C)[C@@H](NC(=O)[C@@H](C)NC(=O)[C@@H](CCCNC(=N)N)NC(=O)[C@@H](Cc1c[nH]c2ccccc12)NC(=O)[C@@H](CCC(N)=O)NC(=O)[C@H](NC(=O)[C@@H](CCCNC(=N)N)NC(=O)[C@H](NC(=O)[C@@H](Cc1c[nH]c2ccccc12)NC(=O)[C@@H](CCCNC(=N)N)NC(=O)[C@H](NC(=O)[C@H](N)CCCNC(=N)N)C(C)C)[C@H](C)CC)C(C)C)C(N)=O [AB110-D, rvrwirvqwrai] (H-[dR][dV][dR][dW][dI][dR][dV][dQ][dW][dR][dA][dI]-NH2) | activity superior to that of AB103-D | 1 µM | smaller than those induced by DJK-5 | 4 µM | 2 µg/mL (≈ 1.22 µM) | 0.8 µg/mL (≈ 0.488 µM) | 0.8 µg/mL (≈ 0.488 µM) | – | – | – | – | –
5 | O=C(O)c1cn(C2CC2)c2cc(N3CCNCC3)c(F)cc2c1=O [CIP] | – | – | – | – | – | – | – | 8 µg/mL | 32 µg/mL | 0.125 µg/mL | 0.0625 µg/mL | –
6 | CN[C@H](CC(C)C)C(=O)N[C@H]1C(=O)N[C@@H](CC(N)=O)C(=O)N[C@H]2C(=O)N[C@H]3C(=O)N[C@H](C(=O)N[C@H](C(=O)O)c4cc(O)cc(O)c4-c4cc3ccc4O)[C@H](O)c3ccc(c(Cl)c3)Oc3cc2cc(c3O[C@@H]2O[C@H](CO)[C@@H](O)[C@H](O)[C@H]2O[C@H]2C[C@](C)(N)[C@H](O)[C@H](C)O2)Oc2ccc(cc2Cl)[C@H]1O [VAN] | – | – | – | – | – | – | – | 0.25 µg/mL | 8 µg/mL | >256 µg/mL | 16 µg/mL | Peptide/Antibiotic Concentration where at least 80% of biofilm growth was inhibited [10]: >256 µg/mL; Peptide/Antibiotic Concentration where at least 80% of biofilm growth was inhibited [11]: 128 µg/mL; Peptide/Antibiotic Concentration where at least 80% of biofilm growth was inhibited [12]: 64 µg/mL
